Where two headings read alike, the source gives them in different places.
How the values were obtained:
[1] = system: SUFU-KO-Light cells expressing Gli-luciferase; assay: Dose-effect curves, dual-Glo luciferase, Compusyn; format: cell-based
[2] = system: Raji (Burkitt Lymphoma cell line); assay: Raji cell viability / proliferation; details: Homo sapiens, read-out: IC50, Raji cell proliferation
[3] = system: Rift Valley Fever Virus (RVFV); assay: microbe, parasite or virus in culture; format: cell-based
[4] = Mouse PK evaluation, plasma, IV; details: CD-1 mice; for AUC(0-inf): AUCInf; for MRT inf: MRTInf_obs
MB002 cells = assay: MTT assay, cell proliferation; format: cell-based
SARS-CoV-2 [5] = details: infected Vero cells, 24 hours post-infection, Western blot
[6] = system: Gli-luciferace activity in the SUFU-KO-light cells; assay: SUFU-KO-Light assay, inhibition of Gli-luciferase activity; format: cell-based; details: read-out: IC50 (μM) SUFU-KO-Light; inhibition of Gli-luciferase activity; listed as Isis-11 (−isomer/E2)
From the text: IC50 SUFO-KO-Light values are for inhibition of Gli-luciferace activity in the SUFU-KO-light cells developed by the James Chen laboratory at Stanford University.

[7] = Maximum tolerated dose (MTD) in mice; format: in vivo; details: AG129 mice; for Alive/total / MDD ± SD (average day of death) / Mean wt. change (g) ± SD: q 3 d × 3; for Alive/total / MDD ± SD (average day of death): 14 days; for Mean wt. change (g) ± SD: weight on 0 and 2 days post-initial treatment
Description: Without wishing to be bound by theory, the purpose of this study is to further identify the MTD and dosing frequency that can be used for Isis-11 (E2) in future antiviral efficacy studies.
Animals: 21 AG129 mice produced by an in-house colony were used. Groups of animals were assigned by weight to experimental groups and individually marked with ear tags.
Test agent: Isis-11 (E2) was provided by University of Utah for testing in the mouse model.
[…] Additional treatments were administered at various time points. Mice were monitored for mortality until 14 days post-initial treatment (dpi). Individual weights were measured daily 0-10 dpi and on 14 dpi.
Statistical analysis: Survival data were analyzed using the Wilcoxon log-rank survival analysis and all other statistical analyses were done using one-way ANOVA using a Bonferroni group comparison (Prism 5, GraphPad Software, Inc.).

[8] = system: Puerto Rica strain of infectious Zika virus; assay: microbe, parasite or virus in culture; format: cell-based; details: Vero
[9] = system: Zika virus, Dengue, Yellow Fever Virus, West Nile Virus; assay: organism not typed; format: cell-based; details: read-out: EC50, viral replication
SARS-CoV-2 [10] = assay: microbe, parasite or virus in culture; details: Severe acute respiratory syndrome coronavirus 2, Vero C1008, read-out: EC50, inhibition of cell death
Shh-NPD (Hh subcategory) = assay: MTT assay, Medulloblastoma cell line; format: cell-based
Description: (§1) The EC50 values shown below in Table 9 were determined for Isis-11 (E2) by MTT assay in the Medulloblastoma cell lines as indicated.

UW-426 (Hh subcategory) = assay: MTT assay, Medulloblastoma cell line; format: cell-based; details: UW426
Description: as §1

[11] = CD-1, mouse, in vivo, iv, 3 mg/kg, Mean, 3 mg/kg IV
[12] = CD-1, mouse, in vivo, iv, 3 mg/kg, Mouse 1, 3 mg/kg IV
[13] = CD-1, mouse, in vivo, iv, 3 mg/kg, Mouse 2, 3 mg/kg IV

## CN(C)CCCn1c(N)nc2ccc3c(c21)CC(CN(C)C)O3 (single isomer, unassigned) [Compound E2]
[1]; read-out: Dose E2
  EC50: 63.5 nM
[1]; read-out: EC50 as single agent
  EC50: 60 nM
[2]
  IC50: 200 nM
[3]
  activity relative to BCX4430 against RVFV: 92 fold
[3]; Rift Valley fever virus
  EC50: 450 nM
[4]; 3 mg/kg IV
  AUC_%Extrap_obs, Mean: 22.3%
  AUC_%Extrap_obs, Mouse 1: 10.4%
  AUC_%Extrap_obs, Mouse 2: 18.9%
  AUC_%Extrap_obs, Mouse 3: 37.6%
  AUClast, Mean: 439 ng·h/mL
  AUClast, Mouse 1: 472 ng·h/mL
  AUClast, Mouse 2: 360 ng·h/mL
  AUClast, Mouse 3: 487 ng·h/mL
  AUClast/D, Mean: 146
  AUClast/D, Mouse 1: 157
  AUClast/D, Mouse 2: 120
  AUClast/D, Mouse 3: 162
  C0, Mean: 794 ng/mL
  C0, Mouse 1: 861 ng/mL
  C0, Mouse 2: 801 ng/mL
  C0, Mouse 3: 720 ng/mL
  Cl_obs, Mean: 91 mL/min/kg
  Cl_obs, Mouse 1: 95.0 mL/min/kg
  Cl_obs, Mouse 2: 113 mL/min/kg
  Cl_obs, Mouse 3: 64.1 mL/min/kg
  Vss_obs, Mean: 71.1 L/kg
  Vss_obs, Mouse 1: 43.7 L/kg
  Vss_obs, Mouse 2: 82.5 L/kg
  Vss_obs, Mouse 3: 87.0 L/kg
[4]; 3 mg/kg IV, 0.083 h
  Plasma concentration, Mean: 457 ng/mL
  Plasma concentration, Mouse 1: 445 ng/mL
  Plasma concentration, Mouse 2: 452 ng/mL
  Plasma concentration, Mouse 3: 473 ng/mL
[4]; 3 mg/kg IV, 0.25 h
  Plasma concentration, Mean: 155 ng/mL
  Plasma concentration, Mouse 1: 118 ng/mL
  Plasma concentration, Mouse 2: 143 ng/mL
  Plasma concentration, Mouse 3: 203 ng/mL
[4]; 3 mg/kg IV, 0.5 h
  Plasma concentration, Mean: 98 ng/mL
  Plasma concentration, Mouse 1: 158 ng/mL
  Plasma concentration, Mouse 2: 60.2 ng/mL
  Plasma concentration, Mouse 3: 75.5 ng/mL
[4]; 3 mg/kg IV, 1 h
  Plasma concentration, Mean: 51.1 ng/mL
  Plasma concentration, Mouse 1: 64.0 ng/mL
  Plasma concentration, Mouse 2: 42.7 ng/mL
  Plasma concentration, Mouse 3: 46.5 ng/mL
[4]; 3 mg/kg IV, 2 h
  Plasma concentration, Mean: 27.2 ng/mL
  Plasma concentration, Mouse 1: 31.9 ng/mL
  Plasma concentration, Mouse 2: 26.8 ng/mL
  Plasma concentration, Mouse 3: 22.8 ng/mL
[4]; 3 mg/kg IV, 4 h
  Plasma concentration, Mean: 19.0 ng/mL
  Plasma concentration, Mouse 1: 25.4 ng/mL
  Plasma concentration, Mouse 2: 11.7 ng/mL
  Plasma concentration, Mouse 3: 19.8 ng/mL
[4]; 3 mg/kg IV, 8 h
  Plasma concentration, Mean: 8.9 ng/mL
  Plasma concentration, Mouse 1: 8.79 ng/mL
  Plasma concentration, Mouse 2: 7.76 ng/mL
  Plasma concentration, Mouse 3: 10.2 ng/mL
[4]; 3 mg/kg IV, 24 h
  Plasma concentration, Mean: 6.9 ng/mL
  Plasma concentration, Mouse 1: 4.57 ng/mL
  Plasma concentration, Mouse 2: 4.10 ng/mL
  Plasma concentration, Mouse 3: 12.1 ng/mL
[4]; [11]
  AUC(0-inf): 485 ng·h/mL
  MRT inf: 9.9 h
[4]; [12]
  AUC(0-inf): 526 ng·h/mL
  MRT inf: 7.67 h
[4]; [13]
  AUC(0-inf): 444 ng·h/mL
  MRT inf: 12.2 h
[4]; CD-1, mouse, in vivo, iv, 3 mg/kg, T1/2, Mouse 2, 3 mg/kg IV
  half-life: 14.2 h
MB002 cells; MB002
  EC50: 430 nM
MB002 cells; MB002, read-out: Dose E2
  IC50: 320 nM
SARS-CoV-2 [5]
  SARS-CoV-2 nucleocapsid protein levels: dose-dependent reduction of viral protein
[6]
  IC50: 0.1 µM
[7]; 1.0 mg/kg/d
  Alive/total: 3/3
  MDD ± SD (average day of death): >14.0 ± 0.0 days
  Mean wt. change (g) ± SD: -1.2 ± 0.8 g
[7]; 3.2 mg/kg eod or q3d
  tolerability: well-tolerated
[7]; 3.2 mg/kg i.p.
  mortality and weight loss: no mortality or weight loss
[7]; 3.2 mg/kg/d
  Alive/total: 3/3
  MDD ± SD (average day of death): >14.0 ± 0.0 days
  Mean wt. change (g) ± SD: -0.1 ± 0.8 g
[7]; 10 mg/kg i.p., eod or q3d
  mortality (animals succumbing to toxicity): 2 of 5
[7]; 10 mg/kg i.p., between 0 and 14 days after initial treatment
  body weight: some transient weight loss, but an overall weight gain
[7]; 32 mg/kg i.p., eod for 4 treatments or q3d for 3 treatments
  mortality: all succumbed
[7]; 32 mg/kg i.p., eod or q3d
  body weight: weight loss
[7]; 3.2 or 1.0 mg/kg/d once every third day
  tolerability, second study: well-tolerated with no indication of toxicity
[7]; 10 or 32 mg/kg, eod or q3d
  tolerability: toxic
[7]; administered bid, once a day at total daily doses of 32, 10, or 3.2 mg/kg/d
  toxicity, initial study: substantial toxicity
[7]; mouse, in vivo, ip
  MTD at 14 days: 3.2 mg/kg
[8]
  EC50: 80 nM
[9]
  EC50: 290 to 320 nM
SARS-CoV-2 [10]
  EC50: 142 nM
Shh-NPD (Hh subcategory)
  EC50: 720 nM
UW-426 (Hh subcategory)
  EC50: 105 nM

Reference: patent US12227512B2, “Benzimidazoles and methods of using same” (priority 2019, dated 2025)
